From patent US20100093776A1, “Organic Compounds and Their Uses” (Novartis AG, priority 2006, published 2010)
pIC50: −log10 of the molar value.

Key:
Type in all cases: biochemical
CDK9/cyclinT1 = target: T1, CDK9/cyclinT1 (Homo sapiens, UniProt P50750); assay: CDK9/cyclinT1 IMAP fluorescence polarization kinase assay; conditions: 6 μM ATP, two hours at room temperature
T1 construct: purchased Millipore
Description: (§1) Kinase assays were performed on recombinant purified enzymes using the non-radioactive IMAP fluorescence polarization assay format.
(§2) Compound stocks were prepared and diluted in DMSO and were added to kinase reactions at a 1/100 dilution for a final concentration of 1% DMSO. The components were added together to final concentrations listed in the tables below and incubated for two hours at room temperature.
(§3) The reactions were stopped by addition of stop solution.
(§4) CDK9/CDK1/CDK7: final stop concentration is 1× Developer buffer (85% A/15% B), IMAP beads 1/400
(§5) The samples were allowed to incubate for one more hour at room temperature and then the fluorescence polarization was measured. The plate normalized millipolarization (mP) values were plotted against the log of compound concentration for each compound and IC50 values were calculated using the spotfire IC50 calculator and confirmed by visual analysis.

CDK2/cyclinA = target: T2, CDK2/cyclinA (Homo sapiens, UniProt P24941); assay: CDK2/cyclinA IMAP fluorescence polarization kinase assay; conditions: 4.68 μM ATP, two hours at room temperature
T2 construct: purchased Millipore
Description: as §1, §2, §3
CDK2: final stop concentration is 1× Developer buffer (100% A), IMAP beads 1/400
as §5

CDK1/cyclinB = target: T3, CDK1/cyclinB (Homo sapiens, UniProt P06493); assay: CDK1/cyclinB IMAP fluorescence polarization kinase assay; conditions: 52 μM ATP, two hours at room temperature
T3 construct: purchased Millipore
Description: as §1, §2, §3, §4, §5

T3 sequence (P06493 whole entry): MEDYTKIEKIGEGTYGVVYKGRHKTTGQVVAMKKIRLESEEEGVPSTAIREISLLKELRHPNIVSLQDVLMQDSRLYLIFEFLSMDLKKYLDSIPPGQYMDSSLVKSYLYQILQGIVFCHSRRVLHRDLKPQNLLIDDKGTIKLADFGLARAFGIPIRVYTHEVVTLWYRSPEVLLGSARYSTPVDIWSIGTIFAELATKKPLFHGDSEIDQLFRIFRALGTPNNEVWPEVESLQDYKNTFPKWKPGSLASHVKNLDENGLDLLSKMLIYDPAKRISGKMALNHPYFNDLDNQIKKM
T3 sequence (P14635 whole entry partner): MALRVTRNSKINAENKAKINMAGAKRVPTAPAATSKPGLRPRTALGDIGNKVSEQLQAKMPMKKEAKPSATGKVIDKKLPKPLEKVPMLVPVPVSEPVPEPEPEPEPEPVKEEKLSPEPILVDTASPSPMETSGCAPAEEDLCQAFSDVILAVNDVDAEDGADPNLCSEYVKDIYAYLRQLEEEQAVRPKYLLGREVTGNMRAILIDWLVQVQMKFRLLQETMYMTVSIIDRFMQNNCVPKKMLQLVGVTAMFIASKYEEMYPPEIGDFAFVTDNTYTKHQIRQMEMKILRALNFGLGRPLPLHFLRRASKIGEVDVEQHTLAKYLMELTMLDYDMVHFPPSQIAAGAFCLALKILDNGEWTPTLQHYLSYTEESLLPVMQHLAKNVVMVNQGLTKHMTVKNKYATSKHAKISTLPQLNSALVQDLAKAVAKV
T1 sequence (P50750 whole entry): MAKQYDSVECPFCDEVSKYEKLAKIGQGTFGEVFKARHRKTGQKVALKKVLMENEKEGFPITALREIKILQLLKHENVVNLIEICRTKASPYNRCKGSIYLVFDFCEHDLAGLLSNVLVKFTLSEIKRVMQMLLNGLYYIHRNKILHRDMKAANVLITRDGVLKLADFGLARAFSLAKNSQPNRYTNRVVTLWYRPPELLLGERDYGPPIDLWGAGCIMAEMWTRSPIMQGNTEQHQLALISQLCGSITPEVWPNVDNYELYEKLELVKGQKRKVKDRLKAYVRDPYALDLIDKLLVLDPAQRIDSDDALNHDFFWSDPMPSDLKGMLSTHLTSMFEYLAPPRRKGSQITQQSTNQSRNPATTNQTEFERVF
T1 sequence (O60563 whole entry partner): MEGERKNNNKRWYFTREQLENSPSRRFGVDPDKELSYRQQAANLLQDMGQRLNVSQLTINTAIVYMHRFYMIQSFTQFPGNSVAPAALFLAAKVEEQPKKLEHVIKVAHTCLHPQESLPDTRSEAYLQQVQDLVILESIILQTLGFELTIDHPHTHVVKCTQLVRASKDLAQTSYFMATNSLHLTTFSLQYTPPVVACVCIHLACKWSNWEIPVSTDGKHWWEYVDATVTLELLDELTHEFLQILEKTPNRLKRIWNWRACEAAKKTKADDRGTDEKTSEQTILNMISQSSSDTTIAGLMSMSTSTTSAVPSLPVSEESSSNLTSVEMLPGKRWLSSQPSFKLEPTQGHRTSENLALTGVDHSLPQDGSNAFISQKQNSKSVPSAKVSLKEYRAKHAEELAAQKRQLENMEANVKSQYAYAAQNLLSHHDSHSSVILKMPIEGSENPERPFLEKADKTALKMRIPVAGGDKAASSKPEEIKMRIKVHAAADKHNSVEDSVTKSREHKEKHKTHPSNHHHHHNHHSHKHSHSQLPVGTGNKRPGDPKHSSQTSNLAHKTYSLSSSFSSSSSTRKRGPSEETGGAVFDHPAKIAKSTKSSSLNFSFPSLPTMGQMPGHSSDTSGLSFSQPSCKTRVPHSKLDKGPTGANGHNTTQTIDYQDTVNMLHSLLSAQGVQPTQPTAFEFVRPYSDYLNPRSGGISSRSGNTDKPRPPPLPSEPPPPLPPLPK

| pIC50 (CDK9/cyclinT1) | pIC50 (CDK2/cyclinA) | pIC50 (CDK1/cyclinB) | SMILES |
| --- | --- | --- | --- |
| > 5.30 | > 5.30 | > 5.30 | COc1cnc(Nc2cccc(S(N)(=O)=O)c2)nc1-c1cccc2[nH]ccc12 [Compound 33, 3-[4-(1H-Indol-4-yl)-5-methoxy-pyrimidin-2-ylamino]-benzenesulfonamide] |
| > 5.30 | > 5.30 | > 5.30 | NS(=O)(=O)c1cccc(Nc2ncc(F)c(-c3cccc4[nH]ccc34)n2)c1 [Compound 34, 3-[5-Fluoro-4-(1H-indol-4-yl)-pyrimidin-2-ylamino]-benzenesulfonamide] |
| > 5.30 | > 5.30 | 4.82 to 5.30 | O=C(Cn1ccc2c(-c3ccnc(Nc4cccc(Cl)c4)n3)cccc21)NCC1CCCN1 (stereo not drawn) [Compound 22, 2-{4-[2-(3-Chloro-phenylamino)-pyrimidin-4-yl]-indol-1-yl}-N-pyrrolidin-2-ylmethyl-acetamide] |
| > 5.30 | < 4.30 | 4.30 to 4.82 | O=C(Cn1ccc2c(-c3ccnc(Nc4cccc(Cl)c4)n3)cccc21)NCCN1CCCC1 [Compound 23, 2-{4-[2-(3-Chloro-phenylamino)-pyrimidin-4-yl]-indol-1-yl}-N-(2-pyrrolidin-1-yl-ethyl)-acetamide] |
| > 5.30 | < 4.30 | < 4.30 | O=C(Cn1ccc2c(-c3ccnc(Nc4cccc(Cl)c4)n3)cccc21)N1CCNCC1 [Compound 20, 2-{4-[2-(3-Chloro-phenylamino)-pyrimidin-4-yl]-indol-1-yl}-1-piperazin-1-yl-ethanone] |
| > 5.30 | 4.82 to 5.30 | 4.30 to 4.82 | O=C(O)Cn1ccc2c(-c3ccnc(Nc4cccc(Cl)c4)n3)cccc21 [Compound 24, {4-[2-(3-Chloro-phenylamino)-pyrimidin-4-yl]-indol-1-yl}-acetic acid] |
| > 5.30 | 4.30 to 4.82 | < 4.30 | NC1CCN(C(=O)Cn2ccc3c(-c4ccnc(Nc5cccc(Cl)c5)n4)cccc32)CC1 [Compound 21, 1-(4-Amino-piperidin-1-yl)-2-{4-[2-(3-chloro-phenylamino)-pyrimidin-4-yl]-indol-1-yl}-ethanone] |
| > 5.30 | 4.30 to 4.82 | 4.30 to 4.82 | Cc1cnc(Nc2cccc(Cl)c2)nc1-c1cccc2[nH]ccc12 [Compound 30, (3-Chloro-phenyl)-[4-(1H-indol-4-yl)-5-methyl-pyrimidin-2-yl]-amine] |

More lines, now with the values behind:

| SMILES | pIC50 (CDK9/cyclinT1) | pIC50 (CDK2/cyclinA) | pIC50 (CDK1/cyclinB) |
| --- | --- | --- | --- |
| CN(C)CCn1ccc2c(-c3ccnc(Nc4cccc(Cl)c4)n3)cccc21 [Compound 10, (3-Chloro-phenyl)-{4-[1-(2-dimethylamino-ethyl)-1H-indol-4-yl]-pyrimidin-2-yl}-amine] | > 5.30 | > 5.30 | > 5.30 |
| CN(C)C(=O)Cn1ccc2c(-c3ccnc(Nc4cccc(Cl)c4)n3)cccc21 [Compound 14, 2-{4-[2-(3-Chloro-phenylamino)-pyrimidin-4-yl]-indol-1-yl}-N,N-dimethyl-acetamide] | > 5.30 | > 5.30 | 4.82 to 5.30 |
| CN(C)CCCn1ccc2c(-c3ccnc(Nc4cccc(Cl)c4)n3)cccc21 [Compound 11, (3-Chloro-phenyl)-{4-[1-(3-dimethylamino-propyl)-1H-indol-4-yl]-pyrimidin-2-yl}-amine] | > 5.30 | > 5.30 | 4.82 to 5.30 |
| NCCNC(=O)Cn1ccc2c(-c3ccnc(Nc4cccc(Cl)c4)n3)cccc21 [Compound 19, N-(2-Amino-ethyl)-2-{4-[2-(3-chloro-phenylamino)-pyrimidin-4-yl]-indol-1-yl}-acetamide] | > 5.30 | < 4.30 | 4.82 to 5.30 |
| Cn1ccc2c(-c3ccnc(Nc4cccc(Cl)c4)n3)cccc21 [Compound 3, (3-Chloro-phenyl)-[4-(1-methyl-1H-indol-4-yl)-pyrimidin-2-yl]-amine] | > 5.30 | > 5.30 | 4.82 to 5.30 |
| OCCn1ccc2c(-c3ccnc(Nc4cccc(Cl)c4)n3)cccc21 [Compound 7, 2-{4-[2-(3-chloroaniline)-pyrimidin-4-yl]-indol-1-yl}-ethanol] | > 5.30 | > 5.30 | 4.82 to 5.30 |
| OCCCn1ccc2c(-c3ccnc(Nc4cccc(Cl)c4)n3)cccc21 [Compound 8, 3-{4-[2-(3-Chloro-phenylamino)-pyrimidin-4-yl]-indol-1-yl}-propan-1-ol] | > 5.30 | > 5.30 | 4.82 to 5.30 |
| CCn1ccc2c(-c3ccnc(Nc4cccc(Cl)c4)n3)cccc21 [Compound 4, (3-Chloro-phenyl)-[4-(1-ethyl-1H-indol-4-yl)-pyrimidin-2-yl]-amine] | > 5.30 | 4.82 to 5.30 | > 5.30 |
| Clc1cccc(Nc2nccc(-c3cccc4c3ccn4Cc3ccccc3)n2)c1 [Compound 6, [4-(1-Benzyl-1H-indol-4-yl)-pyrimidin-2-yl]-(3-chloro-phenyl)-amine] | > 5.30 | < 4.30 | < 4.30 |
| CCOC(=O)Cn1ccc2c(-c3ccnc(Nc4cccc(Cl)c4)n3)cccc21 [Compound 5, Ethyl {4-[2-(3-chloro-phenylamino)-pyrimidin-4-yl]-indol-1-yl}acetate] | > 5.30 | < 4.30 | < 4.30 |
| CC(C)CNC(=O)Cn1ccc2c(-c3ccnc(Nc4cccc(Cl)c4)n3)cccc21 [Compound 16, 2-{4-[2-(3-Chloro-phenylamino)-pyrimidin-4-yl]-indol-1-yl}-N-isobutyl-acetamide] | > 5.30 | < 4.30 | < 4.30 |
| CC(C)(C)NC(=O)Cn1ccc2c(-c3ccnc(Nc4cccc(Cl)c4)n3)cccc21 [Compound 15, N-tert-Butyl-2-{4-[2-(3-chloro-phenylamino)-pyrimidin-4-yl]-indol-1-yl}-acetamide] | > 5.30 | > 5.30 | > 5.30 |
| O=C(Cn1ccc2c(-c3ccnc(Nc4cccc(Cl)c4)n3)cccc21)NCCO [Compound 18, 2-{4-[2-(3-Chloro-phenylamino)-pyrimidin-4-yl]-indol-1-yl}-N-(2-hydroxy-ethyl)-acetamide] | > 5.30 | > 5.30 | 4.82 to 5.30 |
| CNC(=O)Cn1ccc2c(-c3ccnc(Nc4cccc(Cl)c4)n3)cccc21 [Compound 12, 2-{4-[2-(3-Chloro-phenylamino)-pyrimidin-4-yl]-indol-1-yl}-N-methyl-acetamide] | > 5.30 | > 5.30 | > 5.30 |
| O=C(Cn1ccc2c(-c3ccnc(Nc4cccc(Cl)c4)n3)cccc21)NCc1ccccc1 [Compound 17, N-Benzyl-2-{4-[2-(3-chloro-phenylamino)-pyrimidin-4-yl]-indol-1-yl}-acetamide] | < 4.30 | < 4.30 | < 4.30 |
